# From patent EP2610242A1, “Positively charged water-soluble prodrugs of aspirin” (Techfields Biochem Co. Ltd, priority 2006, dated 2008)
# Like-named read-outs stand apart in the source and are kept apart here.
# Key:
# [1] = Solubility in water of the prepared product
# mice [2] = assay: Analgetic activity, acetic acid writhing test; type: in vivo; conditions: for inhibition at 50 mg/kg / inhibition at 100 mg/kg: Mus musculus, po, read-out: % (rate of writhings inhibition)
# Procedure: The number of writhings that occurred when mice were administered an acetic acid solution intraperitoneally were counted, and the rate of inhibition based on the control group was calculated. 42 mice were divided into 7 groups (6 mice each). Aspirin (ASA, 50 mg/kg and 100 g) was administered to groups B1 and B2 of mice and diethylaminoethyl acetylsalicylate.AcOH (DEAE-ASA, 50 mg and 100 mg/kg) was administered orally to groups C1 and C2. Diethylaminoethyl acetylsalicylate.AcOH (DEAE-ASA, 50 mg and 100 mg/kg) was administered transdermally to groups D1 and D2. The A group is the control group. The test compounds were administered to the mice 30 minutes before the acetic acid solution was administered.
# rats [3] = assay: Antipyretic activity, E. coli suspension as pyrogen, body temperature; type: in vivo; conditions: for body temperature t=0 min / body temperature t=90 min / body temperature t=180 min. / body temperature t=270 min.: in °C (unit assumed)
# Procedure: Antipyretic activity: Rats received a sterilized E. coli suspension as a pyrogen. 56 rats were divided into 7 groups. The control group is group A. 2 hours later, Aspirin (ASA, B1 for 100mg/kg and B2 for 150mg/kg) and diethylaminoethyl acetylsalicylate.AcOH (DEAE-ASA, C1 for 100mg/kg and C2 for 150 mg) were administered orally and diethylaminoethyl acetylsalicylate.AcOH (DEAE-ASA, D1 for 100 mg and D2 for 150 mg/kg) were administered transdermally. The body temperature of rats was taken at 90 min. intervals before and after the administration of the test compounds.
# [4] = human, 20 % (suspension in the donor), pH 7.4
# [5] = hairless, mouse, in vivo
# rats [6] = conditions: rat, in vivo, po, 100 mg/kg/day, 21 days
# [7] = cited from earlier work
# physchem [8] = conditions: pH 7, aqueous buffer
# [9] = Half-life in whole human blood
# From the text: (§3) To determine how much the pro-drugs of acetylsalicylic acid were changed back to the drug itself or diethylaminoethyl salicylate, we diluted whole human blood 20 times with a pH 7.4 phosphate buffer (0.2M).
# [10] = Acute toxicity, oral LD50; type: in vivo; conditions: rat, in vivo, rats, read-out: LD50 orally in rats
# From the text: (§1) The acute toxicity of the pro-drugs were investigated.
# mice [11] = assay: Analgetic activity, prolongation of pain threshold of mouse tail (D'Amour-Smith Method); type: in vivo; conditions: versus 200mg/kg aspirin, Figure 3
# Procedure: Analgetic activity: The prolongation time of pain the threshold of a mouse tail was determined in accordance with the D'Amour-Smith Method (J. Pharmacol. Exp. Ther., 72, 74(1941)).
# (§2) • Figure 1: Cumulative amounts of acetylsalicylic acid (ASA), ethyl acetylsalicylate(E-ASA), and diethylaminoethyl acetylsalicylate.AcOH(DEAE-ASA) crossing isolated human skin tissue in Franz cells (n=5). […] In each case, the vehicle was pH 7.4 phosphate buffer (0.2 M). • Figure 2: Total plasma levels of salicylic acid (SA) after topical application of 300 mg of acetylsalicylic acid (ASA) or diethylaminoethyl acetylsalicylate.AcOH (DEAE-ASA) to the backs of hairless mice (n=5). • Figure 3. […] A is the control line. • Figure 4. […] A is the control line.
# rats [12] = assay: Anti-inflammatory activity, carrageenin hind paw swelling; type: in vivo; conditions: 50mg/kg, oral administration and transdermal administration, Figure 4
# Procedure: Anti-inflammatory activity: 50 mg/kg of diethylaminoethyl acetylsalicylate.AcOH was administered orally or transdermally to rats and 50 mg/kg of aspirin was administered orally. 60 minutes later, a carrageenin solution was administered subcutaneously to the foot pads of the rats. The volume of the hind paw was measured at every hour after the administration of the carrageenin, and the rate of increase in the volume of the paw was calculated and designated as the rate of swelling(%).
# as §2
# [13] = Solubility in pH 7 phosphate buffer; conditions: pH 7, aqueous buffer
# rats [14] = assay: Gastroduodenal bleeding (fecal blood) after 21 days of oral dosing; conditions: 100 mg/kg per day orally for 21 days
# [15] = In vitro penetration through human skin, modified Franz cells, HPLC
# [16] = Conversion of pro-drug in whole human blood diluted 20 times with pH 7.4 phosphate buffer, HPLC; conditions: whole human blood diluted 20 times with pH 7.4 phosphate buffer (0.2M)
# From the text: as §3
# [17] = In vivo penetration through the skin of intact hairless mice, plasma levels of salicylic acid by HPLC
# rats [18] = assay: Acute toxicity, oral LD50; type: in vivo; conditions: unit printed as g
# From the text: as §1
# physchem [19] = assay: physchem
# [20] = 50 mg/kg, groups B1 (ASA) and C1 (DEAE-ASA orally), 30 minutes before acetic acid
# [21] = 100 mg/kg, groups B2 (ASA) and C2 (DEAE-ASA orally), 30 minutes before acetic acid
# [22] = 50 mg/kg, groups B1 (ASA) and C1 (DEAE-ASA orally)
# [23] = 100 mg/kg, groups B2 (ASA) and C2 (DEAE-ASA orally)
# [24] = 50 mg/kg transdermally, group D1
# [25] = 100 mg/kg transdermally, group D2
compound,measurement,setting,value
CCN(CC)CCCNC(=O)c1ccccc1OC(C)=O [N-diethylaminopropyl acetylsalicylamide.AcOH],solubility,[1],280 mg/mL
CC(=O)Oc1ccccc1C(=O)NCCN(C)C [N-dimethylaminoethyl acetylsalicylamide.AcOH],solubility,[1],350 mg/mL
CC(=O)Oc1ccccc1C(=O)SCCN(C)C [S-dimethylaminoethyl acetylthiosalicylate.AcOH],solubility,[1],320 mg/mL
"CC(=O)Oc1ccccc1C(=O)O [acetylsalicylic acid, reference compound]",No. of Writhings,mice [2]; [20],18.2
same,No. of Writhings,mice [2]; [21],13.2
same,inhibition at 50 mg/kg,mice [2]; [22],45%
same,inhibition at 100 mg/kg,mice [2]; [23],60%
same,body temperature t=0 min,rats [3]; 100mg/kg orally,37.22±0.05
same,body temperature t=90 min,rats [3]; 100mg/kg orally,36.80±0.05
same,body temperature t=180 min.,rats [3]; 100mg/kg orally,36.85±0.05
same,body temperature t=270 min.,rats [3]; 100mg/kg orally,36.81±0.05
same,body temperature t=0 min,rats [3]; 150mg/kg orally,37.30±0.06
same,body temperature t=90 min,rats [3]; 150mg/kg orally,36.50±0.05
same,body temperature t=180 min.,rats [3]; 150mg/kg orally,36.59±0.05
same,body temperature t=270 min.,rats [3]; 150mg/kg orally,36.55±0.05
same,Apparent flux values,[4],0.25 mg/cm^2/h
same,time to peak levels of salicylic acid in plasma after application of the donor systems,[5],~20 min
same,average fecal blood,rats [6],5 mg of fecal blood per gram of feces
same,half live in plasma,[7],~15 min
same,solubility,physchem [8],0.01 mg/mL
same,half-life,[9],15 min
CCN(CC)CCOC(=O)c1ccccc1OC(C)=O [diethylaminoethyl acetylsalicylate.AcOH],LD50,[10],2300 mg/kg
same,analgetic activity (prolongation time of pain threshold),mice [11]; 200 mg/kg orally (C),stronger analgetic activity
same,analgetic activity (prolongation time of pain threshold),mice [11]; 200 mg/kg transdermally (D),stronger analgetic activity
same,% (rate of writhings inhibition),mice [2]; [24],56%
same,No. of Writhings,mice [2]; [24],14.5
same,No. of Writhings,mice [2]; [20],15.4
same,% (rate of writhings inhibition),mice [2]; [25],70%
same,No. of Writhings,mice [2]; [25],10.1
same,No. of Writhings,mice [2]; [21],11
same,inhibition at 50 mg/kg,mice [2]; [22],54%
same,inhibition at 100 mg/kg,mice [2]; [23],67%
same,analgetic activity compared with aspirin,"mice [2]; writhing test, summary of Table 1",better analgetic activity than aspirin
same,antipyretic activity compared with aspirin,"rats [3]; 100 mg/kg dose, summary of Table 2",some better than aspirin
same,body temperature t=0 min,rats [3]; 100mg/kg orally,37.25±0.09
same,body temperature t=90 min,rats [3]; 100mg/kg orally,36.40±0.15
same,body temperature t=180 min.,rats [3]; 100mg/kg orally,36.50±0.09
same,body temperature t=270 min.,rats [3]; 100mg/kg orally,36.40±0.15
same,body temperature t=0 min,rats [3]; 100mg/kg transdermally,37.19±0.07
same,body temperature t=90 min,rats [3]; 100mg/kg transdermally,36.40±0.05
same,body temperature t=180 min.,rats [3]; 100mg/kg transdermally,36.38±0.05
same,body temperature t=270 min.,rats [3]; 100mg/kg transdermally,36.40±0.15
same,body temperature t=0 min,rats [3]; 150mg/kg orally,37.18±0.07
same,body temperature t=90 min,rats [3]; 150mg/kg orally,36.30±0.15
same,body temperature t=180 min.,rats [3]; 150mg/kg orally,36.28±0.07
same,body temperature t=270 min.,rats [3]; 150mg/kg orally,36.20±0.09
same,body temperature t=0 min,rats [3]; 150mg/kg transdermally,37.33±0.05
same,body temperature t=90 min,rats [3]; 150mg/kg transdermally,36.27±0.15
same,body temperature t=180 min.,rats [3]; 150mg/kg transdermally,36.26±0.07
same,body temperature t=270 min.,rats [3]; 150mg/kg transdermally,36.22±0.08
same,"antipyretic activity, transdermal versus oral administration",rats [3]; summary of Table 2,better than oral administration
same,Anti-inflammatory activity (rate of swelling) compared with aspirin,rats [12],better Anti-inflammatory activity than that of aspirin
same,half-life,[9]; blood,~4 min
same,solubility,[13],> 300 mg/mL
same,solubility,[1],300 mg/mL
same,average fecal blood,rats [14],none
same,Apparent flux values,"[15]; isolated human skin, Franz cells, donor 20% suspension or 20% solution in pH 7.4 phosphate buffer (0.2M)",100 mg/cm^2/h
same,diffuses through human skin times faster than acetylsalicylic acid itself,[15]; ratio versus acetylsalicylic acid,~400 times
same,diffuses through human skin times faster than ethyl acetylsalicylate,[15]; ratio versus ethyl acetylsalicylate,~100 times
same,pro-drug changed back to the drug itself,[16],80%
same,difference of peak plasma levels,[17]; pro-drug donor versus acetylsalicylic acid donor,approximately 100 times
same,peak plasma level of salicylic acid,"[17]; topical, 30% in 1 mL isopropanol on 1 cm^2 of the back, hairless mice",~10 mg/mL
same,peak plasma level times higher than the salicylate plasma level for effective analgesia,[17]; versus 0.15-0.3 mg/ml,33-67 times
same,peak plasma level times higher than the salicylate plasma level for effective anti-inflammatory activity,[17]; versus 0.2-0.3 mg/ml,33-50 times
CC(=O)Oc1ccccc1C(=O)OCCN(C)C [dimethylaminoethyl acetylsalicylate.AcOH],LD50 orally in rats,rats [18],2.2 g
same,solubility,physchem [19],350 mg/mL
CCCN(CCC)CCOC(=O)c1ccccc1OC(C)=O [dipropylaminoethyl acetylsalicylate.AcOH],solubility,[1],300 mg/mL
CCOC(=O)c1ccccc1OC(C)=O [ethyl acetylsalicylate],Apparent flux values,[4],1 mg/cm^2/h
same,penetration rate difference between ethyl acetylsalicylate and acetylsalicylic acid,[4],4 times
O=C(O)c1ccccc1O [salicylic acid],peak plasma level of salicylic acid,[5],~0.01 mg/mL
S-diethylaminoethyl propionylthiosalicylate.AcOH,Solubility in water,[1],280 mg/mL
